The source of these data is patent publication US12643882B2, “Inhibitors of human respiratory syncytial virus and metapneumovirus” (priority 2022, dated 2026).

SMILES strings stand for the structures. Like-named read-outs stand apart in the source and are kept apart here. Bounds are passed on as bounds.

Experiment [1] deals with hMPV-GFP virus. The experiment is described as follows: microbe, parasite or virus in culture. Format: cell-based, human metapneumovirus. How it is done: GFP expressing rgHMPV #3 p3 was generated in Dr. Buchholz's lab (Biacchesi S. et al., J Virol. 2007 June; 81(11): 6057-6067) and propagated in VERO cells (ATCC Cat #CCL-81) with a Multiplicity of Infection (MOI) of 0.1. Virus was harvested 4 days after infection by collecting cultured material and was freeze-thaw cycled in liquid nitrogen twice. Working virus stocks were generated from thawing frozen samples in 37° C. water bath, which were centrifuged at 218 g for 15 min at 4° C. 1/10 of 10×SPG (Biological Industries 06-3061-01-5A) were added and then mixed. The supernatant was aliquoted, frozen in liquid nitrogen, and then transferred to a −80° C. freezer for storage. Virus titer was determined by performing titration test in 96-well plates and calculate approximate virus titer using GFP event/well data.
Compound plates were prepared by dispensing compounds dissolved in DMSO into wells of a 384 well Corning 3985 polystyrene flat clear bottom optical imaging microplate (202.5 nL/well) using an ECHO acoustic dispenser. Each compound was tested in 10-point serial 3-fold dilution (typical final concentrations: 40,300 nM-2 nM). […] Continuous culture of VERO cells was maintained in complete culture media (OptiMEM supplemented with 2 mM GlutaMAX™ and 100 U/ml Penicillin-Streptomycin). To set up the assay, VERO cells were trypsinized with 0.25% Trypsin-EDTA until cells were dislodged, then cells were re-suspended with 1 mL FBS. Cells were spun down at 300 g for 5 minutes and cells were washed twice with culture media and counted using default parameters on ViCell. Cells were then diluted to 100,000 cells/mL (5,000 cells/50 μL) in complete culture media+TrypLE Select (80 μL/mL). hMPV-GFP virus was added to cells at 125,000 pfu/mL (MOI=1.25) and were mixed by gentle inversion. 10 μL/well of 100% DMSO was dispensed to CellTiter-Glo (CTG) assay Max_E controls wells. Cells were dispensed at 50 μL/well using Bravo and 50 μL filtered tips into compound plates. Plates were covered with MicroClime lids and loaded with 7.5 mL of assay media to minimize evaporation. Plates were lightly shaken for 10 minutes at room temperature and then incubated at 37° C. and 5% CO2 for 48 hrs. Following incubation, distinct GFP-expressing cells were counted using an Acumen imaging system with appropriate settings. A same-well CTG assay was performed by adding 10 μL/well reconstituted CellTiter-Glo reagent (Promega G7573) and plates were read on PerkinElmer Envision according to manufacturer's instructions. Raw data were loaded and analyzed in ActivityBase. Antiviral IC50 and cytotoxicity CC50 values were determined using a 4 parameter logistic fit based on the Levenberg-Marquardt algorithm. Model: 205-4 Parameter Logistic. • References: Wen Z, Citron M, Bett A J, Espeseth A S, Vora K A, Zhang L, DiStefano D J. Development and application of a higher throughput RSV plaque assay by immunofluorescent imaging. J Virol Methods. 2019 January; 263:88-95. doi: 10.1016/j.jviromet.2018.10.022. Epub 2018 Oct. 28. PMD: 30381239. • Biacchesi S, Murphy B R, Collins P L, Buchholz U J. Frequent frameshift and point mutations in the SH gene of human metapneumovirus passaged in vitro. J Virol. 2007 June; 81(11):6057-67. doi: 10.1128/JVL.00128-07. Epub 2007 Mar. 21. PMID: 17376897; PMCID: MC 1900297. Assay Data

In experiment [2] the test system is RSV-A2-GFP virus. The experiment is described as follows: microbe, parasite or virus in culture. Format: cell-based, Human Respiratory Syncytial Virus. As for the experimental part:
To set up the assay, ARF vials were thawed in a 37° C. water bath and a control compound was resuspended in assay media DMEM (Dulbecco's Modified Eagle Medium) containing 2% FBS, 100 U/ml Penicillin-Streptomycin.
GFP sequence was derived from pJTI™ R4 Dest CMV N-EmGFP pA Vector (Invitrogen) and was cloned into the intergenic sequence between wild-type RSV-A2 P and M genes using standard recombineering techniques. Recombinant RSV-A2-GFP was propagated in Hep2 cells (human cells contain HeLa marker chromosomes and were derived via HeLa contamination, ATCC CCL-23) with a Multiplicity of Infection (MOI) of 0.1. Virus was harvested 3 days after infection by collecting all culture material and then freeze-thawing the mixture for 5 min. Working virus stocks were generated by thawing frozen viral cultures in 37° C. water bath, which were centrifuged at 218 g for 15 min at 4° C. 1/10 of 10×SPG (Biological Industries 06-3061-01-5A) were added and then mixed. The supernatant was aliquoted, frozen in liquid nitrogen, and then transferred to a −80° C. freezer for storage. Virus titer was determined by automated plaque assay in HEp-2 cells following methods described previously (Wen Z. et al.; 2019).
Calu-1 cells were purchased from ATCC (Cat #HTB-54) and were expanded in growth media (DMEM containing 10% FBS, 100 U/ml Penicillin-Streptomycin). To make ARF, cell culture media was removed and discarded and the cell layer was briefly rinsed with PBS to remove serum. 2.5 mL of TrypLE Express solution were added and cells incubated until dislodged, to which growth media was added and the cells were resuspended by gentle pipetting. Cells were counted for concentration and viability as determined by ViCell. Cells were centrifuged at RT, 300 g for 5 minutes to pellet cells. The supernatant was gently aspirated and the pellet was flicked to loosen cells. Cells were resuspended in an appropriate volume of freezing medium (DMEM containing 10% DMSO, 10% FBS, 100 U/ml Penicillin-Streptomycin) to achieve a concentration of 5×10^6 cells/mL. 1 mL aliquots of the cell suspension were transferred to freezing vials. The vials were put into an upright container in a −80° C. freezer overnight before transferring vials to liquid nitrogen for storage.
Assay ready freezedown (ARF, generation described separately) Calu-1 cells (ATCC HTB-54) were used. Compound plates were prepared by dispensing compounds dissolved in DMSO into the wells of a 384 well Corning® 3985 plate with an ECHO acoustic dispenser and compounds were tested in 10-point serial 3-fold dilution. […] To set up the assay, ARF vial(s) were thawed in a 37° C. water bath and were then resuspended into assay media (DMEM containing 2% FBS, 100 U/ml Penicillin-Streptomycin). Cells were counted using default parameters on ViCell and diluted to 20,000 cells/mL in assay media. RSV-A2-GFP virus was added to cells at 24,000 pfu/ml (MOI=1.2) and mixed by gentle inversion. 10 μL/well of 100% DMSO was dispensed as CellTiter-Glo (CTG) assay Max_E controls wells. The cells were dispensed at 50 μL/well using Bravo with 50 μL filtered tips into compound plates. Plates were covered with MicroClime lids, loaded with 7.5 mL of assay media to minimize evaporation, and were incubated at 37° C. and 5% CO2 for 96 hrs. Following incubation, distinct, GFP-expressing cells were counted using an Acumen imaging system with appropriate settings. A same-well CTG assay was performed by adding 10 μL/well reconstituted CellTiter-Glo reagent (Promega G7573) and plates were read on PerkinElmer Envision according to manufacturer's instructions. Raw data were loaded and analyzed in ActivityBase. Antiviral IC50 and cytotoxicity CC50 values were determined using a 4 parameter logistic fit based on the Levenberg-Marquardt algorithm. Model: 205-4 Parameter Logistic.

[3] abbreviates: human metapneumovirus, Vero, 48 h, read-out: hMPV EC50, VERO cells infected with hMPV-GFP, 48 hrs, GFP-expressing cells counted.
The mark [4] stands for this setting: human respiratory syncytial virus, Calu-1, 96 h, read-out: RSV EC50, Calu-1 cells infected with RSV-A2-GFP, 96 hrs, GFP-expressing cells counted.
The mark [5] stands for this setting: read-out: hMPV EC50, VERO cells infected with hMPV-GFP, 48 hrs, GFP-expressing cells counted.
[6] abbreviates: VERO cells infected with hMPV-GFP, 48 hrs, GFP-expressing cells counted, read-out: hMPV EC50.
The mark [7] stands for this setting: Calu-1 cells infected with RSV-A2-GFP, 96 hrs, GFP-expressing cells counted, read-out: RSV EC50.
Where [8] appears, read: read-out: RSV EC50, Calu-1 cells infected with RSV-A2-GFP, 96 hrs, GFP-expressing cells counted.

One may read the EC50 as the concentration at which the effect is half-maximal.

Turning to `Cn1nc(-c2ncccn2)cc1C(=O)N1C[C@H]2[C@H](Oc3cc(C(C)(C)N)cc(-c4ccc(F)cc4F)n3)[C@@]2(C)C1` (single isomer, unassigned; enantiomer 1) [Example 108A], the concentration giving a half-maximal response (EC50) in experiment [1] (setting [3]) was greater than 100 nM; in experiment [2] (setting [4]) it was less than 10 nM.

With `Cc1nn(-c2ncccn2)cc1C(=O)N1C[C@H]2[C@H](Oc3cc(C(C)(C)N)cc(-c4ccc(F)cc4F)n3)[C@@]2(C)C1` (single isomer, unassigned; enantiomer 1) [Example 109A], the EC50 is greater than 100 nM in experiment [1] (setting [5]) and less than 10 nM in experiment [2] (setting [4]).

As for `Cn1nc(-c2ncccn2)cc1C(=O)N1C[C@H]2[C@H](Oc3cc(C(C)(C)N)cc(-c4ccc(C(F)(F)F)cc4)n3)[C@@]2(C)C1` (single isomer, unassigned; enantiomer 1) [Example 110A], the EC50 was 10 to 100 nM in experiment [1] (setting [5]) and less than 10 nM in experiment [2] (setting [4]).

For `Cc1nn(-c2ncccn2)cc1C(=O)N1C[C@H]2[C@H](Oc3cc(C(C)(C)N)cc(-c4ccc(C(F)(F)F)cc4)n3)[C@@]2(C)C1` (single isomer, unassigned; enantiomer 1) [Example 111A], the EC50 was greater than 100 nM in experiment [1] (setting [5]) and less than 10 nM in experiment [2] (setting [4]).

`Cc1nn(-c2ncccn2)cc1C(=O)N1C[C@@H]2[C@H](C1)[C@H]2Oc1cc(C2(C)CCCN2)cc(-c2ccc(F)cc2)n1` (single isomer, unassigned; enantiomer 1) [Example 112]: the EC50 is greater than 100 nM in experiment [1] (setting [3]) and less than 10 nM in experiment [2] (setting [4]).

With `Cc1nc(-c2ncccn2)sc1C(=O)N1C[C@@H]2[C@H](C1)[C@H]2Oc1cc(C(C)(N)CO)cc(-c2ccc(F)cc2)n1` (single isomer, unassigned; enantiomer 1) [Example 113A], the values for the EC50 in experiment [1] (setting [3]) and in experiment [2] (setting [4]) were greater than 100 nM and less than 10 nM, respectively.

`CCC(C)(N)c1cc(OC2[C@H]3CN(C(=O)c4cn(-c5ncccn5)nc4C)C[C@@H]23)nc(-c2ccc(F)cc2)c1` (single isomer, unassigned; enantiomer 1) [Example 116A]: the EC50 in experiment [1] (setting [6]) was greater than 100 nM; in experiment [2] (setting [7]) it was less than 10 nM.

Take `CCc1nc(-c2ncccn2)sc1C(=O)N1C[C@@H]2[C@H]1C[C@H]2Oc1cc(C(C)(C)N)cc(-c2ccc(F)cc2)n1` (single isomer, unassigned; enantiomer 2) [Example 3]: the EC50 in experiment [1] (setting [3]) is greater than 100 nM; in experiment [2] (setting [4]) it was less than 10 nM.

On to `Cn1nc(-c2ncccn2)cc1C(=O)N1C[C@@H]2[C@H]1C[C@H]2Oc1cc(C(C)(C)N)cc(-c2ccc(F)cc2)n1` (single isomer, unassigned; enantiomer 2) [Example 4], for which the EC50 in experiment [1] (setting [3]) was greater than 100 nM; in experiment [2] (setting [4]), 10 to 100 nM.

For `CCc1nn(-c2ncccn2)cc1C(=O)N1C[C@@H]2[C@H]1C[C@H]2Oc1cc(C(C)(C)N)cc(-c2ccc(F)cc2)n1` (single isomer, unassigned; enantiomer 2) [Example 5], the EC50 in experiment [1] (setting [3]) was greater than 100 nM; in experiment [2] (setting [4]), less than 10 nM.

Consider `CC(C)(N)c1cc(O[C@@H]2C[C@@H]3[C@H]2CN3C(=O)c2cn(-c3ncccn3)nc2C2CC2)nc(-c2ccc(F)cc2)c1` (single isomer, unassigned; enantiomer 2) [Example 6], for which the EC50 is greater than 100 nM in experiment [1] (setting [3]) and less than 10 nM in experiment [2] (setting [4]).

Regarding `CC(O)c1nn(-c2ncccn2)cc1C(=O)N1C[C@@H]2C(Oc3cc(C(C)(C)N)cc(-c4ccc(F)c(F)c4)n3)[C@@H]2C1` (single isomer, unassigned; enantiomer 2) [Example 96B], the EC50 was greater than 100 nM in experiment [1] (setting [6]) and less than 10 nM in experiment [2] (setting [7]).

Consider `Cc1nc(-c2ncccn2)sc1C(=O)N1C[C@H]2[C@H](Oc3cc(C(C)(C)N)cc(-c4ccc(F)cc4)n3)[C@@]2(C)C1` (single isomer, unassigned; enantiomer 2) [Example 103B], for which the EC50 was 10 to 100 nM in experiment [1] (setting [3]) and less than 10 nM in experiment [2] (setting [4]).

In the case of `Cn1nc(-c2ncccn2)cc1C(=O)N1C[C@H]2[C@H](Oc3cc(C(C)(C)N)cc(-c4ccc(F)cc4)n3)[C@@]2(C)C1` (single isomer, unassigned; enantiomer 2) [Example 104B], the values for the EC50 in experiment [1] (setting [5]) and in experiment [2] (setting [8]) were greater than 100 nM and less than 10 nM, respectively.

As for `Cn1nc(-c2ncccn2)cc1C(=O)N1C[C@H]2[C@H](Oc3cc(C(C)(C)N)cc(-c4ccc(F)c(F)c4)n3)[C@@]2(C)C1` (single isomer, unassigned; enantiomer 2) [Example 105B], the values for the 50% effective concentration (EC50) in experiment [1] (setting [5]) and in experiment [2] (setting [8]) were 10 to 100 nM and less than 10 nM, respectively.

As to `Cc1nn(-c2ncccn2)cc1C(=O)N1C[C@H]2[C@H](Oc3cc(C(C)(C)N)cc(-c4ccc(F)c(F)c4)n3)[C@@]2(C)C1` (single isomer, unassigned; enantiomer 2) [Example 106B], the EC50 in experiment [1] (setting [5]) is 10 to 100 nM; in experiment [2] (setting [8]), less than 10 nM.
